Legend:
Assay in all cases: combination Emax (second highest fraction inhibited in the dose matrix, 72 h); higher = more inhibition; extreme values may be limits of the assay
[1] = system: CAL-62 (Thyroid Gland Carcinoma)
Outline: (§1)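 Cell lines in DMEM/F12 or RPMI with 10% FBS were plated in 1536-well plates, held 24 hours at 37°C, 5% CO2, then given two-drug dose matrices for 72 hours (DMSO typically 0.2%). Viability was read by CellTiter-Glo 2.0 luminescence and scaled as inhibition from 0 (vehicle wells) to 1 (blank wells). Combination Emax is the second-highest inhibition in the matrix; Bliss excess is observed combination effect minus expected EA + EB − EA·EB, EA and EB being single-agent effects.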

[2] = system: FADU (Head and Neck Carcinoma)
Outline: as §1

[3] = system: HEC-1 (Endometrial Carcinoma)
Outline: as §1

[4] = system: KE-37 (T-Lymphoblastic Leukemia)
Outline: as §1

[5] = system: L-1236 (Hodgkin's Lymphoma)
Outline: as §1

LN-229 (Glioblastoma) = system: LN-229 (Glioblastoma)
Outline: as §1

[6] = system: MFE-280 (Endometrial Carcinoma)
Outline: as §1

[7] = system: NCI-H2342 (Lung Adenocarcinoma)
Outline: as §1

[8] = system: NCI-H446 (Small Cell Lung Carcinoma)
Outline: as §1

[9] = system: OAW-42 (Ovarian Carcinoma)
Outline: as §1

[10] = system: OPM-2 (Plasma Cell Myeloma)
Outline: as §1

[11] = system: PANC-03-27 (Pancreatic Carcinoma)
Outline: as §1

[12] = system: PC-3_[JPC-3] (Lung Adenocarcinoma)
Outline: as §1

[13] = system: RCM-1 (Colorectal Carcinoma)
Outline: as §1

[14] = system: REH (B-Lymphoblastic Leukemia)
Outline: as §1

SF268 (Low Grade Glioma) = system: SF268 (Low Grade Glioma)
Outline: as §1

SF539 (Glioblastoma) = system: SF539 (Glioblastoma)
Outline: as §1

[15] = system: SU-DHL-10 (B-Cell Non-Hodgkin's Lymphoma)
Outline: as §1

[16] = system: TE-8 (Esophageal Squamous Cell Carcinoma)
Outline: as §1

[17] = system: VAL (B-Cell Non-Hodgkin's Lymphoma)
Outline: as §1

Row | Structure (SMILES) | combination Emax [1] | combination Emax [2] | combination Emax [3] | combination Emax [4] | combination Emax [5] | combination Emax (LN-229 (Glioblastoma)) | combination Emax [6] | combination Emax [7] | combination Emax [8] | combination Emax [9] | combination Emax [10] | combination Emax [11] | combination Emax [12] | combination Emax [13] | combination Emax [14] | combination Emax (SF268 (Low Grade Glioma)) | combination Emax (SF539 (Glioblastoma)) | combination Emax [15] | combination Emax [16] | combination Emax [17]
1 | NC1(C(=O)N[C@@H](CCO)c2ccc(Cl)cc2)CCN(c2ncnc3[nH]ccc23)CC1 [Capivasertib] + Cn1cnc2c(F)c(Nc3ccc(Br)cc3Cl)c(C(=O)NOCCO)cc21 [Selumetinib] (first compound max 10 µM, 7x7, partner max 10 µM) | 0.557 | 0.531 | 0.239 | 0.707 | 0.844 | 0.484 | 0.68 | 0.381 | 0.657 | 0.548 | 1 | 0.517 | 0.382 | 0.668 | 0.492 | 0.315 | 0.68 | 1 | 0.624 | 0.607
2 | COc1cc2ncnc(Nc3ccc(F)c(Cl)c3)c2cc1OCCCN1CCOCC1 [Gefitinib] + CC(C)n1c(=O)n(C)c2cnc3cc(F)c(-c4ccc(OCCCN5CCCCC5)nc4)cc3c21 [AZD1390] (first compound max 10 µM, 7x7, partner max 0.3 µM) | 0 | 0.471 | 0.0663 | 0.357 | 0.254 | 0.0879 | 0.246 | 0.0812 | 0.314 | 0.107 | 0.203 | 0.373 | 0.67 | 0.41 | 0.145 | 0.155 | 0.143 | 0.723 | 0.225 | 0.527
3 | CS(=O)(=O)CCNCc1ccc(-c2ccc3ncnc(Nc4ccc(OCc5cccc(F)c5)c(Cl)c4)c3c2)o1 [Lapatinib] + C[C@@H](Oc1cc(-c2cnn(C3CCNCC3)c2)cnc1N)c1c(Cl)ccc(F)c1Cl [Crizotinib] (first compound max 10 µM, 7x7, partner max 10 µM) | 0.776 | 0.931 | 0.182 | 0.975 | 0.984 | 0.334 | 0.88 | 0.43 | 0.965 | 0.732 | 0.944 | 0.835 | 0.922 | 0.865 | 0.964 | 0.902 | 0.937 | 1 | 0.71 | 0.808
4 | CC(=O)c1c(C)c2cnc(Nc3ccc(N4CCNCC4)cn3)nc2n(C2CCCC2)c1=O [Palbociclib] + CC1(C)CCC(CN2CCN(c3ccc(C(=O)NS(=O)(=O)c4ccc(NCC5CCOCC5)c([N+](=O)[O-])c4)c(Oc4cnc5[nH]ccc5c4)c3)CC2)=C(c2ccc(Cl)cc2)C1 [Venetoclax] (first compound max 10 µM, 7x7, partner max 1 µM) | 0.151 | 0.17 | 0.0102 | 0.776 | 0.611 | 0.0912 | 0.0835 | 0.0497 | 0.462 | 0.105 | 0.38 | 0.131 | 0.176 | 0.394 | 0.825 | 0.254 | 0.262 | 1 | 0.286 | 0.997
5 | CC(=O)c1c(C)c2cnc(Nc3ccc(N4CCNCC4)cn3)nc2n(C2CCCC2)c1=O [Palbociclib] + Cc1c2c(nn1C)CSCc1cc(n(C)n1)CSc1cc(c3ccccc3c1)OCCCc1c(C(=O)O)n(C)c3c-2c(Cl)ccc13 [AZD5991] (first compound max 10 µM, 7x7, partner max 1 µM) | 0.308 | 0.888 | 0.153 | 0.687 | 0.782 | 0.228 | 0.227 | 0.348 | 0.556 | 0.223 | 1 | 0.202 | 0.241 | 0.327 | 0.835 | 0.362 | 0.293 | 1 | 0.427 | 0.717
6 | CC(=O)c1c(C)c2cnc(Nc3ccc(N4CCNCC4)cn3)nc2n(C2CCCC2)c1=O [Palbociclib] + Cn1cnc2c(F)c(Nc3ccc(Br)cc3Cl)c(C(=O)NOCCO)cc21 [Selumetinib] (first compound max 10 µM, 7x7, partner max 10 µM) | 0.457 | 0.412 | 0.056 | 0.71 | 0.658 | 0.277 | 0.199 | 0.107 | 0.567 | 0.168 | 0.448 | 0.414 | 0.29 | 0.63 | 0.448 | 0.218 | 0.336 | 0.997 | 0.383 | 0.599
7 | COc1cccc(OCCCN)c1-c1cc(Nc2cnc(C#N)cn2)n[nH]1 [Prexasertib] + CCc1c2c(nc3ccc(O)cc13)-c1cc3c(c(=O)n1C2)COC(=O)[C@]3(O)CC [SN-38] (first compound max 1 µM, 7x7, partner max 0.3 µM) | 0.884 | 0.998 | 0.894 | 1 | 0.883 | 0.767 | 0.936 | 0.283 | 1 | 0.827 | 0.972 | 0.954 | 0.802 | 0.887 | 1 | 0.937 | 1 | 1 | 0.972 | 0.961
8 | C[C@@H](c1ccc2nccn2c1)n1nnc2ncc(-c3cnn(C)c3)nc21 [Savolitinib] + CC1(C)CCC(CN2CCN(c3ccc(C(=O)NS(=O)(=O)c4ccc(NCC5CCOCC5)c([N+](=O)[O-])c4)c(Oc4cnc5[nH]ccc5c4)c3)CC2)=C(c2ccc(Cl)cc2)C1 [Venetoclax] (first compound max 1 µM, 7x7, partner max 1 µM) | 0.142 | 0.154 | 0.133 | 0.113 | 0.416 | 0.0841 | 0.186 | 0.188 | 0.277 | 0.188 | 0.246 | 0.167 | 0.129 | 0.121 | 0.608 | 0.104 | 0.161 | 0.0782 | 0.229 | 0.963
9 | C[C@@H](c1ccc2nccn2c1)n1nnc2ncc(-c3cnn(C)c3)nc21 [Savolitinib] + Cc1c2c(nn1C)CSCc1cc(n(C)n1)CSc1cc(c3ccccc3c1)OCCCc1c(C(=O)O)n(C)c3c-2c(Cl)ccc13 [AZD5991] (first compound max 1 µM, 7x7, partner max 1 µM) | 0.131 | 0.546 | 0.107 | 0.159 | 0.668 | 0.221 | 0.116 | 0.321 | 0.597 | 0.21 | 1 | 0.0558 | 0.284 | 0.114 | 0.806 | 0.167 | 0.21 | 1 | 0.323 | 0.564
10 | Cn1cnc2c(F)c(Nc3ccc(Br)cc3Cl)c(C(=O)NOCCO)cc21 [Selumetinib] + C=CCn1c(=O)c2cnc(Nc3ccc(N4CCN(C)CC4)cc3)nc2n1-c1cccc(C(C)(C)O)n1 [AZD1775] (first compound max 10 µM, partner max 1 µM) | 0.607 | 0.521 | 0.157 | 0.947 | 0.956 | 0.316 | 0.212 | 0.353 | 0.925 | 0.513 | 0.834 | 0.815 | 0.452 | 0.637 | 0.62 | 0.473 | 0.972 | 0.98 | 0.57 | 0.732
11 | Cn1cnc2c(F)c(Nc3ccc(Br)cc3Cl)c(C(=O)NOCCO)cc21 [Selumetinib] + CC(C)n1c(=O)n(C)c2cnc3cc(F)c(-c4ccc(OCCCN5CCCCC5)nc4)cc3c21 [AZD1390] (first compound max 10 µM, 7x7, partner max 0.3 µM) | 0.219 | 0.271 | 0.0424 | 0.303 | 0.301 | 0.153 | 0.17 | 0.0339 | 0.262 | 0.192 | 0.192 | 0.42 | 0.159 | 0.616 | 0.0781 | 0.139 | 0.359 | 0.0401 | 0.546 | 0.0806
12 | Cn1cnc2c(F)c(Nc3ccc(Br)cc3Cl)c(C(=O)NOCCO)cc21 [Selumetinib] + CCN(CCO)CCCOc1ccc2c(Nc3cc(CC(=O)Nc4cccc(F)c4)[nH]n3)ncnc2c1 [AZD2811] (first compound max 10 µM, 7x7, partner max 1 µM) | 0.291 | 0.467 | 0.0639 | 1 | 0.289 | 0.286 | 0.161 | 0.365 | 0.91 | 0.194 | 0.356 | 0.534 | 0.189 | 0.656 | 0.604 | 0.275 | 0.501 | 0.738 | 0.347 | 0.678
13 | Cn1cnc2c(F)c(Nc3ccc(Br)cc3Cl)c(C(=O)NOCCO)cc21 [Selumetinib] + C[C@@H]1COCCN1C2=NC(=NC(=C2)C3(CC3)[S@](=N)(=O)C)C4=C5C=CNC5=NC=C4 [AZD6738] (first compound max 10 µM, 7x7, partner max 10 µM) | 0.672 | 0.404 | 0.298 | 0.959 | 0.839 | 0.552 | 0.151 | 0.483 | 0.85 | 0.507 | 0.847 | 0.599 | 0.309 | 0.656 | 0.684 | 0.49 | 0.855 | 0.911 | 0.495 | 0.746

From the supplement of paper PMC11061612
